Laboratory results from publication PMC11778240, “Synthesis and preclinical evaluation of tigilanol tiglate analogs as latency-reversing agents for the eradication of HIV” (Science Advances, 2025).
Values joined by “and” are separate entries in the source; they are usually repeats but may differ in a detail not shown here. Equal entries are not always repeated. Where two headings read alike, the source gives them in different places.

Experiments:
PKC-β-I = molecular target: T1, PKC-β-I (Homo sapiens, UniProt P05771); assay: Cell-free PKC competition binding assay against 3H-PDBu; conditions: for PKC-β selectivity: Fig. 7A, PKC-β over PKC-δ; for PKC binding affinity and selectivity in words / decrease in PKC binding affinity / potency compared to EBC-46: PKC-β and PKC-δ; for logKi (best-fit value), PKC-β-I: log of Ki in nM
T1 construct: purchased Invitrogen
Source text: (§1) With a diverse library of compounds bearing unique functionalities on the A-, B-, and C-rings (Fig. 6), we began to explore how these modifications affect PKC binding (Fig. 7A), NF-κB activation (Fig. 7B), cell permeation and PKC translocation (Fig. 7, C and D), and latency reversal in J-Lat cells (Fig. 8). […] We conducted this assay with phosphatidyl serine vesicles in solution that mimic the cellular membrane and play a critical role in the binding of small molecules to the PKC C1 domain (Fig. 7A) ([64]).
(§2) Cell-free PKC Binding Assay
The protein kinase C (PKC) affinity of EBC-46 and EBC-46 analogs was determined via […]
entails a glass-fiber filtration method to determine bound radioligand. The method of determining the radioligand Kd is also described.
(§3) Tris HCl (Fisher, ≥ 99%, stored at room temperature)
(§4) Phosphatidylserine (Avanti Polar Lipids, porcine, 25 mg/mL CHCl3 solution, stored at - […]
(§5) Bovine serum albumin (Sigma -Aldrich, ≥ 98%, globulin free, protease free, stored at 4 […]
Human PKC-β-I-GST fusion protein (Invitrogen, aliquoted and stored at -78 °C) Human PKC-δ-GST fusion protein (Invitrogen, aliquoted and stored at -78 °C) Glass-fiber filters (Whatman GF/B) […]
(§6) a final concentration of 500 nM.
(§7) Preparation of phosphatidylserine (PS) vesicles :
(§8) For every 96 samples, 3.5 mg phosphatidylserine (140 μL) (25 mg/mL CHCl3 solution) was concentrated by removing chloroform under reduced pressure. The phosphatidylserine residue was resuspended in freshly prepared PKC binding assay buffer (3.5 mL), capped, and then thoroughly mixed by alternating between sonicating and vortexing, in 10 second intervals for 1 minute or until a cloudy white mixture (Branson Sonifier 250, power = 2, 50% duty cycle). The resulting cloudy white mixture (1 mg/mL) was stored on ic e until use.
(§9) Preparation of the "master mix" Solution :
(§10) Constituent Stock concentration (final concentration/amount in “master mix”):
(§11) PS vesicles (0.103 mg/mL)
(§12) Deionized H2O - Final vol of 30 mL
(§13) Preparation of PKC binding assay buffer:
(§14) For every 96 samples, to a 50 mL polypropylene tube was added Tris -HCl (pH 7.4, 1 M, 1.5 mL), KCl (1 M, 3 mL), CaCl2 (0.1 M, 35 μL – conventional isoforms only), and bovine serum albumin (60 mg). This mixture was diluted to 30 mL with deionized H2O and mixed gently. The buffer was […]
(§15) Preparation of PKC isoform solution:
(§16) For every 96 samples, PKC isoform solution was prepared by dissolving a 4 μg aliquot of the indicated recombinant human PKC isoform into 26.5 mL of PKC binding assay buffer. The diluted PKC was stored on ice for immediate use.
(§17) Preparation of PKC “master mix” solution:
(§18) To the PKC-isoform solution was added 1 mg/mL PS vesicles solution (3.30 mL), and 500 nM […]
(§19) The resulting “master mix” solution was vortexed and stored on […]
(§20) Preparation of analog compound dilutions:
(§21) Compound dilutions were prepared with filtered DMSO by serially diluting from a chosen "high" concentration. For the saturation binding experiment (radioligand Kd determination), the maximum radioligand concentration used was 4.0 nM with 2-fold dilutions between data points […]
(§22) the middle of the binding curve.
For the competition binding experiment (analog Ki determination), 7 or 14 concentrations were used to define the inhibition curve, and compounds dilutions changed by factors of 2 or √2 between data points. The concentrations were chosen such that the in-assay concentration for the data points in the middle of the binding curve were approximately equal to the IC50 of the compound (if the IC50 is unknown, an exploratory binding assay is recommended prior to Ki determination). For assays with one compound per sheet, the √2-fold dilutions were prepared for the concentrations in […]
PKC binding assay protocol (Saturation -binding experiment and Competition -binding experiment)
1) Glass-fiber filters were prepared by soaking them in a solution of aqueous polyethyleneimine

PKC-δ = molecular target: T2, PKC-δ (Homo sapiens, UniProt Q05655); assay: as above; conditions: for logKi (best-fit value), PKC-δ: log of Ki in nM
T2 construct: purchased Invitrogen (Sinobiological for the SUW402 experiment)
Source text: as §1, §2
The protein kinase C (PKC) affinity of EBC-46 and EBC-46 analogs was determined via competition with 3H-phorbol-12,13-dibutyrate (3H-PDBu) as described below. This procedure entails a glass-fiber filtration method to determine bound radioligand. The method of determining the radioligand Kd is also described.
as §3, §4, §5
Human PKC-β-I-GST fusion protein (Invitrogen, aliquoted and stored at -78 °C) Human PKC-δ-GST fusion protein (Invitrogen, aliquoted and stored at -78 °C) Glass-fiber filters (Whatman GF/B)
Preparation of 3H -PDBu solution : […]
as §6, §7, §8, §9, §10, §11, §12, §13, §14, §15, §16, §17, §18, §19, §20, §21
isoforms ranges from 0.3 – 0.8 nM. […]
as §22
For the competition binding experiment (analog Ki determination), 7 or 14 concentrations were used to define the inhibition curve, and compounds dilutions changed by factors of 2 or √2 between data points. The concentrations were chosen such that the in-assay concentration for the data points in the middle of the binding curve were approximately equal to the IC50 of the compound (if the IC50 is unknown, an exploratory binding assay is recommended prior to Ki determination). For assays with one compound per sheet, the √2-fold dilutions were prepared for the concentrations in the middle of the curve (e.g., for SUW400, the analog dilutions used were 15000 nM, 7500 nM, […]
PKC binding assay protocol (Saturation -binding experiment and Competition -binding experiment) […]

[1] = HotNM 2.5, HotKdNM 0.37, supplement fit, read-out: Ki (best-fit value), PKC-β-I
[2] = competition against radiolabeled PDBu, Fig. 7A and text, read-out: Ki PKC-β
[3] = HotNM 2.5, HotKdNM 0.62, supplement fit, read-out: Ki (best-fit value), PKC-δ
[4] = competition against radiolabeled PDBu, Fig. 7A and text, read-out: Ki PKC-δ

T2 sequence (Q05655 whole entry): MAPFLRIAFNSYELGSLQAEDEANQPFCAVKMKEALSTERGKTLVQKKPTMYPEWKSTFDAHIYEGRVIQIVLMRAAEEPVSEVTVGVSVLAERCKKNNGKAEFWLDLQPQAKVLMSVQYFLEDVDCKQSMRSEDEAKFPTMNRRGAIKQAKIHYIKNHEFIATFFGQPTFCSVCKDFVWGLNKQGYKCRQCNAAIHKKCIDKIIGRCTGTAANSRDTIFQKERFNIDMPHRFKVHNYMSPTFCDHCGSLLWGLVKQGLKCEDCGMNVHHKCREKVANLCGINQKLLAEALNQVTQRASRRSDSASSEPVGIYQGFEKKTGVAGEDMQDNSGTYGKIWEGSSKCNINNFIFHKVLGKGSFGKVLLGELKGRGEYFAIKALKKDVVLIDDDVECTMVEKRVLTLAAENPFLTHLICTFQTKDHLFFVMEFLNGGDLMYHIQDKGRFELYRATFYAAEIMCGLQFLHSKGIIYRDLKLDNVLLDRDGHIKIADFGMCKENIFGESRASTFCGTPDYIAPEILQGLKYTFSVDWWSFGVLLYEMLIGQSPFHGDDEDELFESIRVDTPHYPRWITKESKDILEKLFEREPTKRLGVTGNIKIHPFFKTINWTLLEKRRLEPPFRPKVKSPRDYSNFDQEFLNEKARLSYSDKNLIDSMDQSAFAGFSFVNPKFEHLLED
T1 sequence (P05771 whole entry): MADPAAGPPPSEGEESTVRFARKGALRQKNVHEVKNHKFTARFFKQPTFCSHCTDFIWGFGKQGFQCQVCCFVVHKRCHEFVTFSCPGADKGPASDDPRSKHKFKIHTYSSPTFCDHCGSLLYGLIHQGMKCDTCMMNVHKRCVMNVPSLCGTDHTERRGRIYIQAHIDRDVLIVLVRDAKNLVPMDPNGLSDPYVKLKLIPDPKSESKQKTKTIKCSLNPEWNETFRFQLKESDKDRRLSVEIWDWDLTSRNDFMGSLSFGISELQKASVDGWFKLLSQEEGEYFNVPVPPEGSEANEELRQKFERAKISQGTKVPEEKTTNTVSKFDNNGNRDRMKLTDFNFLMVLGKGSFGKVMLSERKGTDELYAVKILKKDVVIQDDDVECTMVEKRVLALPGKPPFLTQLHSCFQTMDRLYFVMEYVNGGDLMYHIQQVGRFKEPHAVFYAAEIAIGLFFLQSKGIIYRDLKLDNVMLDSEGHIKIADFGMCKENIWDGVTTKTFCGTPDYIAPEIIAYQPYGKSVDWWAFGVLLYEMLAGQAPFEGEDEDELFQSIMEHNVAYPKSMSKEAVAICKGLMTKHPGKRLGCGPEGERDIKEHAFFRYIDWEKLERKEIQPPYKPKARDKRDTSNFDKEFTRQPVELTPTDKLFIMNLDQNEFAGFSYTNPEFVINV

SMILES | PKC-β selectivity (PKC-β-I) | Ki (PKC-β-I; [1]) [nM] | PKC binding affinity and selectivity in words (PKC-β-I) | Ki (PKC-β-I; [2]) | logKi (best-fit value), PKC-β-I (PKC-β-I; HotNM 2.5, HotKdNM 0.37) | Ki (PKC-δ; [3]) [nM] | logKi (best-fit value), PKC-δ (PKC-δ; HotNM 2.5, HotKdNM 0.62) | selectivity for PKC-β over PKC-δ (PKC-β-I) [fold] | stronger binding for PKC-β compared to EBC-46 (PKC-β-I) | Ki (PKC-β-I; read-out: binding for PKC-β (Ki)) [nM] | stronger binding for PKC-δ compared to EBC-46 (PKC-δ) [fold] | greater affinity to PKC-δ than that reported for SUW013 (PKC-δ; comparison with literature value) | Ki (PKC-δ; read-out: binding for PKC-δ (Ki)) [nM] | decrease in PKC binding affinity / potency compared to EBC-46 (PKC-β-I) | Ki (PKC-δ; [4]) [nM] | weaker binding affinity for PKC-δ than EBC-46 (PKC-δ)
C/C=C(\C)C(=O)O[C@@H]1[C@@H](C)[C@]2(O)[C@@H]3C=C(C)[C@H](OC(=O)c4ccccc4)[C@@]3(O)[C@H](O)C(CO)=C[C@H]2[C@@H]2C(C)(C)[C@]12OC(=O)[C@@H](C)CC [SUW422] | 2.1 | 1.49 | nearly identical binding potency and selectivity to EBC-46 | 1.5 nM | 0.1731 | 3.04 | 0.4832 |  |  |  |  |  |  |  |  | 
C/C=C(\C)C(=O)O[C@@H]1[C@@H](C)[C@@]2(O)[C@H]([C@@H]3C(C)(C)[C@]13OC(=O)Cc1cccc3ccccc13)[C@@H]1O[C@]1(CO)[C@@H](O)[C@]1(O)C(=O)C(C)=C[C@H]12 [SUW431] |  | 0.079 | remarkable affinities in the picomolar range |  | -1.102 | 0.114 | -0.9424 | 1.4 | ~ 20 fold | 0.079 | 30 | approximately 10 fold | 0.11 |  |  | 
CC[C@H](C)C(=O)O[C@@]12[C@H](OC(=O)N3CCCC3)[C@@H](C)[C@@]3(O)[C@H]([C@@H]1C2(C)C)[C@@H]1O[C@]1(CO)[C@@H](O)[C@]1(O)C(=O)C(C)=C[C@H]13 [SUW424] | 6.1 | 27.8 |  | 28 nM and ~25 nM | 1.445 | 175 | 2.242 | 6 |  |  |  |  |  | > 10 fold | 170 | 
C/C=C(\C)C(=O)O[C@@H]1[C@@H](C)[C@]2(O)[C@@H]3C=C(C)C(=O)[C@@]3(O)[C@H](O)C(CO)=C[C@H]2[C@@H]2C(C)(C)[C@]12OC(=O)[C@@H](C)CC [SUW400] | 2.9 | 0.851 | nearly identical binding affinity and selectivity compared to EBC-46 | 0.85 nM | -0.07019 | 2.53 | 0.4034 |  |  |  |  |  |  |  | 2.5 | 
C/C=C(\C)C(=O)O[C@@H]1[C@@H](C)[C@@]2(O)[C@H]([C@@H]3C(C)(C)[C@]13OC(=O)N1CCCC1)[C@@H]1O[C@]1(CO)[C@@H](O)[C@]1(O)C(=O)C(C)=C[C@H]12 [SUW421] | 9.5 | 20.1 |  | 20 nM and ~25 nM | 1.302 | 194 | 2.288 | 10 |  |  |  |  |  | > 10 fold | 190 | 
CC[C@H](C)C(=O)O[C@@]12[C@H](OC(C)(C)C)[C@@H](C)[C@@]3(O)[C@H]([C@@H]1C2(C)C)[C@@H]1O[C@]1(CO)[C@@H](O)[C@]1(O)C(=O)C(C)=C[C@H]13 [SUW430] |  | 1.47 |  | 1.5 nM | 0.1684 | 59.7 | 1.776 | 40 |  |  |  |  |  |  | 60 | ~ 20 ×
CC=C(C)C(=O)OC1C(C)C2(O)C(C3OC3(CO)CC3(O)C(=O)C(C)=CC32)C2C(C)(C)C12OC(=O)C(C)CC (stereo not drawn) [SUW403] | 2.7 | 7.9 |  | 7.9 nM | 0.8975 | 21.4 | 1.330 |  |  |  |  |  |  | approximately fivefold | 21 | 
